Test results from PubChem BioAssay AID256 (DTP/NCI, 2004).
Where “and” joins values, the source holds several entries; their conditions need not be identical. Equal entries are not always repeated. Inconclusive results and toxic doses are left out. Rule for the calls: active = survival T/C of 150% or more; inactive = T/C below 125% in these data.

System: CD2F1 mice, L1210 leukemia ip, survival T/C
Experiment: NCI In Vivo Anticancer Drug Screen. Data for tumor model L1210 Leukemia (intraperitoneal) in CD2F1 (CDF1) mice
Conditions: higher = longer survival
How it was run: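 Compound-dosed mice with transplantable tumor versus matched vehicle controls; endpoint ratio T/C reported.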

[1] = endpoint: mean survival time, dose: 25.0 mg/kg/injection, schedule: Q01DX009 (ip), vehicle: saline with Tween-80
[2] = endpoint: mean survival time, dose: 50.0 mg/kg/injection, schedule: Q01DX009 (ip), vehicle: saline with Tween-80
[3] = endpoint: mean survival time, dose: 100.0 mg/kg/injection, schedule: Q01DX001 (ip), vehicle: saline with Tween-80
[4] = endpoint: mean survival time, dose: 100.0 mg/kg/injection, schedule: Q01DX009 (ip), vehicle: Klucel (hydroxypropylcellulose) (HPC)
[5] = endpoint: mean survival time, dose: 200.0 mg/kg/injection, schedule: Q01DX001 (ip), vehicle: saline with Tween-80
[6] = endpoint: mean survival time, dose: 400.0 mg/kg/injection, schedule: Q01DX001 (ip), vehicle: saline with Tween-80
[7] = endpoint: mean survival time, dose: 100.0 mg/kg/injection, schedule: Q04DX002 (ip), vehicle: saline with Tween-80
[8] = endpoint: mean survival time, dose: 400.0 mg/kg/injection, schedule: Q04DX002 (ip), vehicle: saline with Tween-80

Measured: T/C

C=C(C)[C@H]1CN[C@H](C(=O)O)[C@H]1CC(=O)O
inactive: endpoint: mean survival time, dose: 5.0 mg/kg/injection, schedule: Q01DX001 (ip), vehicle: saline 94 % of control | endpoint: median survival time, dose: 0.31 mg/kg/injection, schedule: Q01DX009 (ip), vehicle: saline with Tween-80 103 % of control | endpoint: median survival time, dose: 0.62 mg/kg/injection, schedule: Q01DX009 (ip), vehicle: saline with Tween-80 101 % of control | endpoint: median survival time, dose: 1.25 mg/kg/injection, schedule: Q01DX009 (ip), vehicle: saline with Tween-80 100 % of control | endpoint: median survival time, dose: 2.5 mg/kg/injection, schedule: Q01DX009 (ip), vehicle: saline with Tween-80 101 % of control | endpoint: median survival time, dose: 2.5 mg/kg/injection, schedule: Q01DX009 (ip), vehicle: saline 96 % of control | endpoint: median survival time, dose: 5.0 mg/kg/injection, schedule: Q01DX009 (ip), vehicle: saline with Tween-80 101 % of control | endpoint: median survival time, dose: 5.0 mg/kg/injection, schedule: Q01DX009 (ip), vehicle: saline 103 % of control | endpoint: median survival time, dose: 6.25 mg/kg/injection, schedule: Q01DX009 (ip), vehicle: saline 104 % of control | endpoint: median survival time, dose: 10.0 mg/kg/injection, schedule: Q01DX009 (ip), vehicle: saline with Tween-80 101 % of control | endpoint: median survival time, dose: 10.0 mg/kg/injection, schedule: Q01DX009 (ip), vehicle: saline 101 % of control | endpoint: median survival time, dose: 12.5 mg/kg/injection, schedule: Q01DX009 (ip), vehicle: saline 108 % of control | endpoint: median survival time, dose: 20.0 mg/kg/injection, schedule: Q01DX009 (ip), vehicle: saline 95 % of control | endpoint: median survival time, dose: 25.0 mg/kg/injection, schedule: Q01DX009 (ip), vehicle: saline 97 % of control | endpoint: median survival time, dose: 40.0 mg/kg/injection, schedule: Q01DX009 (ip), vehicle: saline 93 % of control | endpoint: median survival time, dose: 50.0 mg/kg/injection, schedule: Q01DX009 (ip), vehicle: saline 96 % of control

COc1ccc2[nH]c3c(c2c1)CNCC3
inactive: endpoint: mean survival time, dose: 50.0 mg/kg/injection, schedule: Q01DX001 (ip), vehicle: saline 106 % of control | endpoint: mean survival time, dose: 100.0 mg/kg/injection, schedule: Q01DX001 (ip), vehicle: saline 102 % of control | endpoint: mean survival time, dose: 200.0 mg/kg/injection, schedule: Q01DX001 (ip), vehicle: saline 113 % of control

OC(c1ccccc1)c1ccccc1
inactive: endpoint: mean survival time, dose: 100.0 mg/kg/injection, schedule: Q01DX009 (ip), vehicle: saline 91 % of control | endpoint: mean survival time, dose: 200.0 mg/kg/injection, schedule: Q01DX009 (ip), vehicle: saline 91 % of control | endpoint: mean survival time, dose: 400.0 mg/kg/injection, schedule: Q01DX009 (ip), vehicle: saline 91 % of control

N#CCSc1ncnc2nc[nH]c12
inactive: endpoint: mean survival time, dose: 15.0 mg/kg/injection, schedule: Q01DX009 (ip), vehicle: saline 95 % of control and 107 % of control | endpoint: mean survival time, dose: 30.0 mg/kg/injection, schedule: Q01DX009 (ip), vehicle: saline 110 % of control and 112 % of control | endpoint: mean survival time, dose: 60.0 mg/kg/injection, schedule: Q01DX009 (ip), vehicle: saline 110 % of control | endpoint: median survival time, dose: 30.0 mg/kg/injection, schedule: Q01DX009 (ip), vehicle: saline 100 % of control | endpoint: median survival time, dose: 60.0 mg/kg/injection, schedule: Q01DX009 (ip), vehicle: saline 122 % of control

Cc1nc2c(ncn2C2OC3COP(=O)(O)OC3C2O)c2nccn12 (stereo not given)
inactive: endpoint: mean survival time, dose: 12.5 mg/kg/injection, schedule: Q01DX005 (ip), vehicle: water 95 % of control | endpoint: mean survival time, dose: 25.0 mg/kg/injection, schedule: Q01DX005 (ip), vehicle: water 100 % of control | endpoint: mean survival time, dose: 50.0 mg/kg/injection, schedule: Q01DX005 (ip), vehicle: water 90 % of control | endpoint: mean survival time, dose: 100.0 mg/kg/injection, schedule: Q01DX005 (ip), vehicle: water 106 % of control

CN(Cc1ccccc1)N=Nc1ccccc1
inactive: endpoint: mean survival time, dose: 18.75 mg/kg/injection, schedule: Q01DX009 (ip), vehicle: Klucel (hydroxypropylcellulose) (HPC) 103 % of control | endpoint: mean survival time, dose: 37.5 mg/kg/injection, schedule: Q01DX009 (ip), vehicle: Klucel (hydroxypropylcellulose) (HPC) 107 % of control | endpoint: mean survival time, dose: 75.0 mg/kg/injection, schedule: Q01DX001 (ip), vehicle: saline 108 % of control | endpoint: mean survival time, dose: 75.0 mg/kg/injection, schedule: Q01DX009 (ip), vehicle: Klucel (hydroxypropylcellulose) (HPC) 113 % of control | endpoint: mean survival time, dose: 150.0 mg/kg/injection, schedule: Q01DX001 (ip), vehicle: saline 108 % of control | endpoint: mean survival time, dose: 150.0 mg/kg/injection, schedule: Q01DX009 (ip), vehicle: Klucel (hydroxypropylcellulose) (HPC) 119 % of control | endpoint: mean survival time, dose: 300.0 mg/kg/injection, schedule: Q01DX001 (ip), vehicle: saline 111 % of control

CC1(C)CC(OP(=O)(c2ccccc2)c2ccccc2)CC(C)(C)N1O
inactive: endpoint: mean survival time, dose: 100.0 mg/kg/injection, schedule: Q04DX003 (ip), vehicle: water 106 % of control | endpoint: mean survival time, dose: 200.0 mg/kg/injection, schedule: Q04DX003 (ip), vehicle: water 91 % of control | endpoint: mean survival time, dose: 400.0 mg/kg/injection, schedule: Q04DX003 (ip), vehicle: water 102 % of control

C1CC[N-]CC1.C1CC[N-]CC1.C1CC[N-]CC1.C1CC[N-]CC1.N#C[S-].N#C[S-].[Ni]
inactive: endpoint: mean survival time, dose: 10.0 mg/kg/injection, schedule: Q04DX003 (ip), vehicle: Klucel (hydroxypropylcellulose) (HPC) 90 % of control | endpoint: mean survival time, dose: 20.0 mg/kg/injection, schedule: Q04DX003 (ip), vehicle: Klucel (hydroxypropylcellulose) (HPC) 91 % of control | endpoint: mean survival time, dose: 40.0 mg/kg/injection, schedule: Q04DX003 (ip), vehicle: Klucel (hydroxypropylcellulose) (HPC) 96 % of control

COc1ccc(COc2ccc([N+](=O)[O-])cc2)cc1OC
inactive: endpoint: mean survival time, dose: 75.0 mg/kg/injection, schedule: Q04DX002 (ip), vehicle: saline with Tween-80 87 % of control | endpoint: mean survival time, dose: 150.0 mg/kg/injection, schedule: Q04DX002 (ip), vehicle: saline with Tween-80 102 % of control

COc1cc(NC(=O)CCl)ccc(=O)c1
inactive: endpoint: mean survival time, dose: 12.5 mg/kg/injection, schedule: Q01DX009 (ip), vehicle: saline with Tween-80 106 % of control | endpoint: mean survival time, dose: 12.5 mg/kg/injection, schedule: Q04DX003 (ip), vehicle: saline with Tween-80 99 % of control | [1] 104 % of control | endpoint: mean survival time, dose: 25.0 mg/kg/injection, schedule: Q04DX003 (ip), vehicle: saline with Tween-80 91 % of control | [2] 90 % of control | endpoint: mean survival time, dose: 50.0 mg/kg/injection, schedule: Q04DX003 (ip), vehicle: saline with Tween-80 94 % of control

CCCCCCCCCCCCCCCCOc1ccc(C(=O)OC)cc1NS(=O)(=O)c1ccc(C(=O)O)cc1
inactive: [3] 96 % of control | [4] 98 % of control | [5] 98 % of control | endpoint: mean survival time, dose: 200.0 mg/kg/injection, schedule: Q01DX009 (ip), vehicle: Klucel (hydroxypropylcellulose) (HPC) 95 % of control | [6] 91 % of control | endpoint: mean survival time, dose: 400.0 mg/kg/injection, schedule: Q01DX009 (ip), vehicle: Klucel (hydroxypropylcellulose) (HPC) 98 % of control

O=S1(=O)C=CCCC=C1
inactive: endpoint: mean survival time, dose: 50.0 mg/kg/injection, schedule: Q01DX009 (ip), vehicle: Klucel (hydroxypropylcellulose) (HPC) 93 % of control | [4] 93 % of control

O=C1c2ccccc2C(=O)N1CCS(=O)(=O)O
inactive: [7] 97 % of control | endpoint: mean survival time, dose: 200.0 mg/kg/injection, schedule: Q04DX002 (ip), vehicle: saline with Tween-80 94 % of control | [8] 94 % of control

O=C(Nc1cccc(O)c1)C1CC1
inactive: [3] 105 % of control | [5] 94 % of control

N#Cc1ncc(-c2ccccc2)nc1C#N
inactive: [3] 91 % of control | [5] 92 % of control | [6] 105 % of control

COc1ccc(NC(=O)Oc2ccccc2C(C)C)cc1
inactive: [1] 97 % of control | endpoint: mean survival time, dose: 25.0 mg/kg/injection, schedule: Q04DX002 (ip), vehicle: saline with Tween-80 107 % of control | [2] 97 % of control | endpoint: mean survival time, dose: 50.0 mg/kg/injection, schedule: Q04DX002 (ip), vehicle: saline with Tween-80 111 % of control | endpoint: mean survival time, dose: 100.0 mg/kg/injection, schedule: Q01DX009 (ip), vehicle: saline with Tween-80 97 % of control | [7] 90 % of control and 96 % of control | [8] 93 % of control
